Measurements published in patent publication US4690920A, “Derivative of cephalosporanic acid and pharmaceutical composition comprising the same” (Kureha Kagaku Kogyo Kabushiki Kaisha, priority 1982, dated 1987).

Tests used:
[1] = system: Escherichia coli IFO 12734; assay: Anti-bacterial activity, agar plate dilution method (MIC), Escherichia coli; type: cell-based; details: Mueller-Hinton agar, 18 to 24 hours, 37° C.
Experimental: (§1) 3-1: The minimum growth-inhibiting concentration (MIC) of each of the compounds represented by the formula (I) was measured according to the standard procedures of Japan Society of Chemotherapy against each of the following bacterial species:
Escherichia coli, IFO 12734 and
(§2) Anti-bacterial activity of each of the compounds produced in Examples 1 to 6 was measured according to the standard procedures of Japan Society of Chemotherapy in agar plate dilution method as follows:
(§3) As a test bacterial species, Escherichia coli IFO 12734 and Staphylococcus aureus IAM 1011, and each strain was inoculated into Mueller-Hinton's culture medium for 18 to 48 hours at 37° C., and while using the thus cultured bacteria, each of the test bacterial liquid containing 10^6 cells in one ml was prepared.
(§4) Separately, after preparing each series of diluted aqueous solutions of each of the compounds produced in Examples 1 to 6, respectively, each of them was mixed in amount of 1/9 time by weight with the Mueller-Hinton's culture medium and each flat agar culture plate was prepared by using the thus formed mixture.

[2] = system: Staphylococcus aureus IAM 1011; assay: Effectiveness in treating experimental infectious disease, Staphylococcus aureus; type: in vivo, mice (ddY-SPF) infected with Staphylococcus aureus; details: of 20 mice; 2.3×10^8 cells i.p.; 500 mg/kg orally two times; all untreated died on second day
Experimental: (§5) Each of 20 mice of a group was infected by intraperitoneal inoculation of Escherichia coli IFO 12734 or Staphylococcus aureus IAM 1011, and just after or after 4 hours of the inoculation, each of the compounds represented by the formula (I) was orally administered to the inoculated mouse at a dose rate of 500 mg/kg body weight.
(§6) Cells in number of 1.4×10^8 of Escherichia coli IFO 12734 were intraperitoneally inoculated to each of 40 ddY-SPF mice, and each of 20 mice of the 40 mice was administered two times just after and after 4 hours of the inoculation with each 500 mg of the compound produced in Example 4 per kg of body weight orally, and the other 20 mice were kept untreated.
Quite the same experiments as in (10-1) except for intraperitoneously inoculating Staphylococcus aureus IAM 1011 in number of 2.3×10^8instead of 1.4×10^8 cells of E. coli was carried out by administering two times with each 500 mg of the compound produced in Example 4. As a result, all the 20 mice inoculated and not administered died on the second day of inoculation, however, more than 70% of the inoculated and administered 20 mice were alive even on the 7th day of inoculation.

[3] = system: A species of Streptococcus; assay: Effect on the intestinal bacterial colonies: number of a species of Streptococcus in feces; type: in vivo, Streptococcus (feces of female ICR mice); details: oral, 500 mg/kg/day for 2 days; feces one day after administration; before administration 6.4
Experimental: (§7) After collecting the feces of a group of mice, each of the compounds represented by the formula (I) was orally administered to each of the group for 2 continued days at a daily dose rate of 500 mg per kg body weight, and the feces were again collected one day after the administration. Each portion of the thus collected, two kinds of the feces was cultured at 25° C. or 37° C. in a variety of culture media for one to five days to see the state of growth of the following bacteria which are present habitually in the intestine of the mouse: Escherichia coli, Pseudomonas aeruginosa, a streptococcus bacterial species, a lactobacillis bacteria, Lactobacillus bifidus and a bacterioides bacteria.
(§8) Each of the compounds, respectively produced in Examples 1 to 6 was orally administered for two continued days at a daily dosage of 500 mg/kg body weight to each of five female ICR mice of a group after 6 weeks of birth.
(§9) Each of the two fecal specimens respectively collected before and after one day of the administration was diluted with 100 times by weight of an anaerobic diluent (a phosphoric buffer solution) and was ground in a mortar, and 0.1 ml of the ground material was smeared on each of the following culture media for the following bacteria and the thus inoculated culture media were incubated under the following conditions. Thereafter, the number of the following bacteria was determined on each culture medium.
a species of TATAC agar 37° C., for 1 day, […]

[4] = system: Escherichia coli IFO 12734; assay: Effectiveness in treating experimental infectious disease, Escherichia coli; type: in vivo, mice (ddY-SPF) infected with Escherichia coli; details: of 20 mice; 1.4×10^8 cells i.p.; 500 mg/kg orally two times, just after and after 4 hours; all untreated died on second day
Experimental: as §5, §6

[5] = system: Staphylococcus aureus IAM 1011; assay: Anti-bacterial activity, agar plate dilution method (MIC), Staphylococcus aureus; type: cell-based; details: Mueller-Hinton agar, 18 to 24 hours, 37° C.
Experimental: as §1
Staphylococcus aureus, IAM 1011
as §2, §3, §4

[6] = system: Lactobacillus bifidus; assay: Effect on the intestinal bacterial colonies: number of Lactobacillus bifidus in feces; type: in vivo, Lactobacillus bifidus (feces of female ICR mice); details: oral, 500 mg/kg/day for 2 days; feces one day after administration; before administration 8.0
Experimental: as §7, §8, §9
BS agar 37° C., for 5 days, […]

[7] = system: A species of Lactobacillus; assay: Effect on the intestinal bacterial colonies: number of a species of Lactobacillus in feces; type: in vivo, Lactobacillus (feces of female ICR mice); details: oral, 500 mg/kg/day for 2 days; feces one day after administration; before administration 9.0
Experimental: as §7, §8, §9
a species of LBS agar 37° C., for 5 days, […]

[8] = system: Pseudomonas aeruginosa; assay: Effect on the intestinal bacterial colonies: number of Pseudomonas aeruginosa in feces; type: in vivo, Pseudomonas aeruginosa (feces of female ICR mice); details: oral, 500 mg/kg/day for 2 days; feces one day after administration; before administration <3.0
Experimental: as §7, §8, §9
NAC agar 37° C., for 1 day, […]

[9] = system: Escherichia coli; assay: Effect on the intestinal bacterial colonies: number of Escherichia coli in feces; type: in vivo, Escherichia coli (feces of female ICR mice); details: oral, 500 mg/kg/day for 2 days; feces one day after administration; before administration 7.0
Experimental: as §7, §8, §9
DHL agar 37° C., for 1 day, […]

[10] = system: Staphylococcus aureus IAM 1011; assay: Model test for verifying the activation in living body: growth-inhibition circle with/without rat liver S-9 mix; type: cell-based; details: 20 min at 37° C., then 18 hours at 37° C.; for Sign: diameter of growth-inhibiting circle as percentage of that due to compound of formula (II), with the addition of S-9 mix: with the addition of S-9 mix (rat liver homogenate)
Experimental: On each flat culture plate prepared by adding 10^8 cells/ml of a preliminarily cultured Staphylococcus aureus IAM 1011 into 50 times by weight of Mueller-Hinton's agar culture medium, a penicillin cup of 8 mm in diameter was placed, and into each cup 0.1 ml of each of the compounds represented by the formula (I) or 0.1 ml of a cultured product of each of the compounds represented by the formula (I) together with a rat liver homogenate (containing a metabolism-activating enzyme, referred to as S-9 mix) was introduced. The diameter of each growth-inhibition circle formed around the cup after incubating the flat culture plate with the cup for 18 hours at 37° C. was measured, and the thus obtained value was compared to the value obtained by the same procedures except for using the compound represented by the formula (II), the starting compound instead of each of the compounds represented by the formula (I).
As a metabolism-activating enzyme, a rat liver homogenate (S-9, manufactured by Oriental Yeast Co.) was used in the following composition (referred to as S-9 mix, hereinafter):
After mixing 0.1 ml of a solution of the compound to be tested with 0.9 ml of S-9 mix or 0.9 ml of 0.1M phosphoric acid buffer solution, the mixture was subjected to shaking culture for 20 min at 37° C. to prepare a test reaction solution for use in the following experiment.
Staphylococcus aureus IAM 1011 was inoculated to Mueller-Hinton's culture medium and the inoculum was cultured for 18 hours at 37° C. and after adjusting the number of the bacterial cells to 10^8 /ml of the culture medium, 50 times by weight of the Mueller-Hinton's agar culture medium were added to the cultured medium to prepare flat culture plates.
After placing a penicillin-cup of 8 mm in diameter on each of the thus prepared flat culture plates, 0.1 ml of the above-mentioned test reaction solution was introduced into the penicillin-cup, and after leaving the system for 2 hours at 4° C., the system was incubated for 18 hour at 37° C., and the diameter of the growth-inhibition circle around the cup on the culture plate was determined.
The thus obtained diameter of the growth-inhibiting circle due to each of the compounds produced respectively in Examples 1 to 6 was compared to that due to the compound repesente by the formula (II), substituted cephalosporanic acid by percentage, and the following signs were respectively given to the respective compounds as follows: […]

[11] = system: A species of Bacterioides; assay: Effect on the intestinal bacterial colonies: number of a species of Bacterioides in feces; type: in vivo, Bacteroides (feces of female ICR mice); details: oral, 500 mg/kg/day for 2 days; feces one day after administration; before administration 8.1
Experimental: as §7, §8, §9
a species of NBGT agar 37° C., for 5 days,7 -Bacteroides anaer

Structure (SMILES) | Minimum concentration of inhibiting growth of Escherichia coli (MIC) [1] | inoculated and administered mice alive on the 7th day of inoculation [2] | Log10 value of the number of bacterial cells/g of feces, a species of Streptococcus [3] | mice alive on the 7th day of inoculation [4] | Minimum concentration of inhibiting growth of Staphylococcus aureus (MIC) [5] | Log10 value of the number of bacterial cells/g of feces, Lactobacillus bifidus [6] | Log10 value of the number of bacterial cells/g of feces, a species of Lactobacillus [7] | Log10 value of the number of bacterial cells/g of feces, Pseudomonas aeruginosa [8] | Log10 value of the number of bacterial cells/g of feces, Escherichia coli [9] | Sign: diameter of growth-inhibiting circle as percentage of that due to compound of formula (II), with the addition of S-9 mix [10] | Sign: diameter of growth-inhibiting circle as percentage of that due to compound of formula (II), without adding S-9 mix [10] | Log10 value of the number of bacterial cells/g of feces, a species of Bacterioides [11]
COC(=O)CNC(=O)c1ccc(NC(=O)C2=C(CSc3nnnn3C)CSC3N2C(=O)C3(NC(=O)CSCC#N)OC)cc1 (stereo not drawn) [Example 4, N-(4-carbomethoxymethylcarbamoylphenyl)-{7-beta-cyanomethylthioacetamido-7-alpha-methoxy-3-[(1-methyl-1H-tetrazol-5-yl)thio]methyl-3-cepheme-4-carboxylic}amide] | ≥ 100 microgram/ml | more than 70% | 5.9 Log10 cells/g of feces | more than 16 mice | ≥ 100 microgram/ml | 7.9 Log10 cells/g of feces | 9.3 Log10 cells/g of feces | < 3.0 Log10 cells/g of feces | 7.0 Log10 cells/g of feces | + (1 to 33) | - (0) | 8.3 Log10 cells/g of feces
COC1(NC(=O)CSCC#N)C(=O)N2C(C(=O)Nc3ccc(C)cc3)=C(CSc3nnnn3C)CSC21 (stereo not drawn) [Example 6, N-(4-methylphenyl)-{7-beta-cyanomethylthioacetamido-7-alpha-methoxy-3-[(1-methyl-1H-tetrazol-5-yl)thio]methyl-3-cepheme-4-carboxylic}amide] | ≥ 100 microgram/ml |  | 6.3 Log10 cells/g of feces |  | ≥ 100 microgram/ml | 8.0 Log10 cells/g of feces | 9.2 Log10 cells/g of feces | < 3.0 Log10 cells/g of feces | 6.9 Log10 cells/g of feces | + (1 to 33) | - (0) | 8.0 Log10 cells/g of feces
